This note sets out measurements from patent publication US20250066320A1, “Active Ingredients with Sialagogue and Tingling/Fizzy Effect, and Preparations Containing Same” (Symrise AG, priority 2021, published 2025).

This assay in a line: Sensory tasting of the active ingredients (mouth-watering and/or tingling effect) by a trained expert panel. The format is in vivo, human. Particulars: for Sensory Rating: intensity of mouth-watering and/or tingling/fizzing effect (figure in brackets): 50 ppm. The protocol:
The sensory tasting of the active ingredients according to the invention was carried out as follows: • (1) The active ingredients were each prepared in a 5% sugar solution or in an unflavored standard fondant mass. Fondant is the name for a soft, pasty sugar mass that is used to make various confectionery products. Fondant is made from water and sucrose as well as glucose syrup, invert sugar cream and/or sugar alcohols (e.g., sorbitol or mannitol). The mixture is boiled and then processed into a soft paste by kneading it vigorously and cooling it quickly. • (2) The concentration of the active ingredients was 25 or 50 ppm. • (3) The test samples were tested under practical conditions by a panel of experts with sensory training. For tasting, 3 to 7 tasters each rinsed their mouths with approx. 5 ml of the sugar solution and spat the solution out again. The mouth-watering and/or tingling effect was assessed on a scale of 1 (very weak) to 10 (very strong) and the profile evaluated.

[1] abbreviates: 25 ppm in 5% sugar solution or unflavored fondant mass, 3 to 7 tasters.
Setting [2] is: 50 ppm in 5% sugar solution or unflavored fondant mass, 3 to 7 tasters.
Setting [3] is: scale of 1 (very weak) to 10 (very strong).

As for `CCCOc1ccc(C(=O)N2CCN(C/C=C/c3ccccc3)CC2)cc1OCCC` [Compound 1, [4-[(E)-cinnamyl]pi-perazin-1-yl]-(3,4-dipropoxy-phenyl)methanone], the “Sensory Rating (profile in words)” value under setting [1] was “astringent mouth-watering, Spilanthes effect”. As for `COc1ccc(C(=O)N2CCN(C/C=C/c3ccccc3)CC2)cc1OC` [Compound 3, [4-[(E)-cinnamyl]piperazin-1-yl]-(3,4-dimethoxy-phenyl)methanone], the “Sensory Rating (profile in words)” value under setting [2] is recorded as “tingling/ fizzing”. On the same count and under the same terms, the entry for `COc1cc(C(=O)N2CCN(C/C=C/c3ccccc3)CC2)ccc1O` [Compound 4, [4-[(E)-cinnamyl]piperazin-1-yl]-(4-hydroxy-3-methoxy-phenyl)methanone] is “balsamic”. On to `COc1cc(C(=O)N2CCN(C/C=C/c3ccccc3)CC2)cc(OC)c1OC` [Compound 5, [4-[(E)-cinnamyl]piperazin-1-yl]-(3,4,5-trimethoxy-phenyl)methanone], for which, under setting [1], the “Sensory Rating (profile in words)” value is reported as “chocolaty, dusty, after cress”. `CCCOc1ccc(C(=O)N2CCN(C/C=C/c3ccccc3)CC2)cc1OCCC` [Compound 6, [4-[(E)-cinnamyl]piperazin-1-yl]-(3,4-dipropoxy-phenyl)methanone]: under setting [1], the “Sensory Rating (profile in words)” value is listed as “bitter, light astringent”.

With `CCOc1ccc(C(=O)N2CCN(CCCc3ccccc3)CC2)cc1OCC` [Compound 7, (3,4-Diethoxy-phenyl)-[4-(3-phenyl-propyl)piperazin-1-yl]methanone], the “Sensory Rating (profile in words)” value under setting [1] was “tingling/ fizzing, mouth-watering, slightly cooling”. Still for that read-out and setting: the result for `CCOc1ccc(C(=O)N2CCN(Cc3ccccc3)CC2)cc1OCC` [Compound 8, (4-benzylpiperazin-1-yl)-(3,4-diethoxy-phenyl)methanone] reads “slightly tingling/ fizzing, slightly mouth-watering, slightly cooling”; that for `COc1ccc(C(=O)N2CCN(C/C=C/c3ccccc3)CC2)cc1O` [Compound 9, [4-[(E)-cinnamyl]piperazin-1-yl]-(3-hydroxy-4-methoxy-phenyl)methanone], “sweet, after melon”; that for `CC(C)Oc1ccc(C(=O)N2CCN(C/C=C/c3ccccc3)CC2)cc1OC(C)C` [Compound 10, [4-[(E)-cinnamyl]piperazin-1-yl]-(3,4-diisopropoxy-phenyl)methanone], “astringent, bitter”. Take `CCOc1ccc(C(=O)N2CCN(CCCCc3ccccc3)CC2)cc1OCC` [Compound 11, (3,4-Diethoxy-phenyl)-[4-(4-phenyl-butyl)piperazin-1-yl]methanone]: under setting [1], the “Sensory Rating (profile in words)” value is “tingling/ fizzing, like melon, astringent, mouth-watering”. For the molecule `CCOc1ccc(C(=O)N2CCN(CCc3ccncc3)CC2)cc1OCC` [Compound 12, (3,4-Diethoxy-phenyl)-[4-[2-(4-pyridyl)ethyl]piperazin-1-yl] methanone], the “Sensory Rating (profile in words)” value under setting [1] is recorded as “tingling/ fizzing, mouth-watering, ethanolic”. Take `CCOc1ccc(C(=O)N2CCN(CCOc3ccccc3)CC2)cc1OCC` [Compound 13, (3,4-Diethoxy-phenyl)-[4-(2-phenoxyethyl)piperazin-1-yl] methanone]: under setting [1], the “Sensory Rating (profile in words)” value is on record as “strong tingling/ fizzing, mouth-watering,”. Regarding `CCOc1ccc(C(=O)N2CCN(Cc3ccncc3)CC2)cc1OCC` [Compound 14, (3,4-Diethoxy-phenyl)-[4-(4-pyridyl-methyl)piperazin-1-yl]methanone], the “Sensory Rating (profile in words)” value under setting [1] is recorded as “slightly tingling/ fizzing, mouth-watering, burning,”.

Take `CCOc1ccc(C(=O)N2CCN(CCc3ccccc3)CC2)cc1OCC` [Compound 15, (3,4-Diethoxy-phenyl)-[4-(2-phenyl-ethyl)piperazin-1-yl]methanone]: the “Sensory Rating (profile in words)” value under setting [1] is listed as “Acid effect, tingling/ fizzing, mouth-watering, slightly salty”. Take `O=C(c1ccccc1)N1CCN(CCCCc2ccccc2)CC1` [Compound 16, Phenyl-[4-(4-phenylbutyl)piperazin-1-yl]methanone]: the “Sensory Rating (profile in words)” value under setting [1] is listed as “slightly tingling/ fizzing”; the “Sensory Rating (profile in words)” value under setting [2] is “metallic taste, mouth-watering and tingling/ fizzing effect”. The “Sensory Rating: intensity of mouth-watering and/or tingling/fizzing effect (figure in brackets)” value under setting [3] is 2-3. For the molecule `O=C(c1ccccc1)N1CCN(C/C=C/c2ccccc2)CC1` [Compound 17, [4-[(E)-cinnamyl]piperazin-1-yl]-phenyl-methanone], the “Sensory Rating (profile in words)” value under setting [2] is given as “slightly tingling/ fizzing, slightly honey-like”. Moreover, the “Sensory Rating: intensity of mouth-watering and/or tingling/fizzing effect (figure in brackets)” value under setting [3] was determined as 3. For the molecule `O=C(c1ccccc1)N1CCN(CCc2ccccc2)CC1` [Compound 18, Phenyl-[4-(2-phenyl-ethyl)piperazin-1-yl]methanone], the “Sensory Rating (profile in words)” value is “no effect” under setting [1]; “slightly tingling/ fizzing and mouth-watering” under setting [2]. Besides, the “Sensory Rating: intensity of mouth-watering and/or tingling/fizzing effect (figure in brackets)” value under setting [3] is recorded as 2-3. Take `O=C(c1ccccc1)N1CCN(CCC2CCCCC2)CC1` [Compound 19, [4-(2-cyclo-hexylethyl)piperazin-1-yl]-phenyl-methanone]: the “Sensory Rating (profile in words)” value is given as “fruity, slightly mouth-watering” under setting [1] and “of mushrooms, fruity, slightly metallic taste, slightly tingling/ fizzing” under setting [2]. Moreover, the “Sensory Rating: intensity of mouth-watering and/or tingling/fizzing effect (figure in brackets)” value under setting [3] is 1-2. For `O=C(c1ccccc1)N1CCC(CCCc2ccccc2)CC1` [Compound 20, Phenyl-[4-(3-phenyl-propyl)-1-piperidyl]-methanone], the “Sensory Rating (profile in words)” value under setting [2] is “slightly tingling/ fizzing (2), mouth-watering, Anthranilate- like, fruity note”. Further, under setting [3], the “Sensory Rating: intensity of mouth-watering and/or tingling/fizzing effect (figure in brackets)” value is “slightly tingling/ fizzing (2), mouth-watering, Anthranilate- like, fruity note”. `O=C(c1ccccc1)N1CCN(CCCc2ccccc2)CC1` [Compound 21, Phenyl-[4-(3-phenylpropyl)piperazin-1-yl] methanone]: the “Sensory Rating (profile in words)” value by setting is: under setting [1], “sweet, fruity, slightly tingling/ fizzing”; under setting [2], “slightly tingling/ fizzing and mouth-watering”. Also, the “Sensory Rating: intensity of mouth-watering and/or tingling/fizzing effect (figure in brackets)” value under setting [3] is 2-3. For `O=C(c1ccccc1)N1CCCN(CCc2ccccc2)CC1` [Compound 22, Phenyl-[4-(2-phenyl-ethyl)-1,4-diazepan-1-yl] methanone], the “Sensory Rating (profile in words)” value is “floral, linalool flavor” under setting [1]; “very light metallic taste, remarkably mouth-watering and tingling/ fizzing” under setting [2]. In addition, under setting [3], the “Sensory Rating: intensity of mouth-watering and/or tingling/fizzing effect (figure in brackets)” value is given as 4-5. As for `O=C(c1ccccc1)N1CCN(Cc2ccccc2)CC1` [Compound 23, (4-benzylpiperazin-1-yl)-phenyl-methanone], the “Sensory Rating (profile in words)” value under setting [2] was “Slightly floral taste, slightly metallic, not a pleasant taste, very slightly mouth-watering and tingling/fizzing”. Also, the “Sensory Rating: intensity of mouth-watering and/or tingling/fizzing effect (figure in brackets)” value under setting [3] was found to be 3. Consider `CCOc1ccc(C(=O)N2CCN(CCC3CCCCC3)CC2)cc1OCC` [Compound 24, [4-(2-cyclo-hexylethyl)piperazin-1-yl]-(3,4-diethoxy-phenyl)methanone], for which the “Sensory Rating (profile in words)” value under setting [2] is “fruity taste (blueberries)”. As to `CCOc1ccc(C(=O)N2CCC(CCCc3ccccc3)CC2)cc1OCC` [Compound 25, (3,4-Diethoxy-phenyl)-[4-(3-phenyl-propyl)-1-piperidyl]-methanone], under setting [2], the “Sensory Rating (profile in words)” value was “Very slightly tingling/fizzing (2-3), sharp, astringent”. Besides, the “Sensory Rating: intensity of mouth-watering and/or tingling/fizzing effect (figure in brackets)” value under setting [3] is “Very slightly tingling/fizzing (2-3), sharp, astringent”.

Regarding `CCOc1ccc(C(=O)N2CCCN(CCc3ccccc3)CC2)cc1OCC` [Compound 26, (3,4-Diethoxy-phenyl)-[4-(2-phenyl-ethyl)-1,4-diazepan-1-yl]methanone], under setting [2], the “Sensory Rating (profile in words)” value is “Very slightly tingling/fizzing (1-2), and mouth-watering (weak)”. The “Sensory Rating: intensity of mouth-watering and/or tingling/fizzing effect (figure in brackets)” value under setting [3] was “Very slightly tingling/fizzing (1-2), and mouth-watering (weak)”. Consider `COc1ccc(C(=O)N2CCN(CCCCc3ccccc3)CC2)cc1OC` [Compound 27, (3,4-Dimethoxy-phenyl)-[4-(4-phenyl-butyl)piperazin-1-yl]methanone], for which the “Sensory Rating (profile in words)” value under setting [2] was “slightly tingling/ fizzing (4-5), and mouth-watering, metallic after- taste, weakly burning”. Moreover, under setting [3], the “Sensory Rating: intensity of mouth-watering and/or tingling/fizzing effect (figure in brackets)” value is “slightly tingling/ fizzing (4-5), and mouth-watering, metallic after- taste, weakly burning”.

Consider `COc1ccc(C(=O)N2CCN(CCc3ccccc3)CC2)cc1OC` [Compound 28, (3,4-Dimethoxy-phenyl)-[4-(2-phenyl-ethyl)piperazin-1-yl]methanone], for which the “Sensory Rating (profile in words)” value (dosage 25 and 50 ppm, cell not split by dosage) is reported as “slightly tingling/ fizzing (3) slightly metallic”. For the same molecule, the “Sensory Rating: intensity of tingling/fizzing effect (figure in brackets)” value (dosage 25 and 50 ppm, cell not split by dosage, scale of 1 (very weak) to 10 (very strong)) is given as “slightly tingling/ fizzing (3) slightly metallic”. Regarding `COc1ccc(C(=O)N2CCN(CCC3CCCCC3)CC2)cc1OC` [Compound 29, [4-(2-cyclo-hexylethyl)piperazin-1-yl]-(3,4-dimethoxy-phenyl)methanone], the “Sensory Rating (profile in words)” value under setting [2] is recorded as “slightly mouth-watering, slightly tingling/ fizzing (1-2), green note, light onion flavor”. Besides, the “Sensory Rating: intensity of mouth-watering and/or tingling/fizzing effect (figure in brackets)” value under setting [3] was “slightly mouth-watering, slightly tingling/ fizzing (1-2), green note, light onion flavor”. As to `COc1ccc(C(=O)N2CCC(CCCc3ccccc3)CC2)cc1OC` [Compound 30, (3,4-Dimethoxy-phenyl)-[4-(3-phenyl-propyl)-1-piperidyl]methanone], the “Sensory Rating (profile in words)” value under setting [2] was “very slight tingling/fizzing and mouth-watering, dry in the mouth”.
